According to ChEMBL document CHEMBL5252613, “Discovery and anti-tumor activity of 4-(benzylamino)-6-(3,5-dimethylisoxazol-4-yl)quinolin-2(1H)-one (CG13250), a potent, selective and orally bioavailable BET bromodomain inhibitor” (Bioorg Med Chem Lett, 2023):
Calls of active or inactive are those of the source. The rule behind the calls is not given here.

Columns and labels:
[1] = molecular target: T1, Bromodomain-containing protein 4 (Homo sapiens, UniProt O60885); assay: Inhibition of BRD4 bromodomain 1/2 (unknown origin) assessed as dissociation constant by DiscoveRx BROMOscan assay
MV4-11 = assay: Growth inhibition of human MV4-11 cells measured after 72 hrs; type: functional
[2] = molecular target: T1, Bromodomain-containing protein 4; assay: Inhibition of BRD4 bromodomain 1/2 (unknown origin) by Alphascreen assay
[3] = Cmax in CD-1 mouse brain at 50 mg/kg, po; type: ADME, organism-based; set-up: dose 50 mg/kg, route po
[4] = Tmax in CD-1 mouse plasma at 50 mg/kg, po; type: ADME, organism-based
[5] = AUC(0 to t) in CD-1 mouse brain at 50 mg/kg, po; type: ADME, organism-based; set-up: dose 50 mg/kg, route po
[6] = Half-life in CD-1 mouse plasma at 10 mg/kg, sc; type: ADME, organism-based
Kasumi 1 = assay: Antitumor activity against human Kasumi 1 cells xenografted in mouse assessed as tumor growth inhibition at 50 mg/kg, po administered once a day for 15 days starting from 25 days after transplantation relative to control; type: functional; settings: Kasumi 1, 360 h, time 15 day, read-out: TGI
[7] = Tmax in CD-1 mouse plasma at 10 mg/kg, sc; type: ADME, organism-based
Cytochrome P450 2D6 = Cytochrome P450 2D6 (Homo sapiens, UniProt P10635); assay: Inhibition of CYP2D6 (unknown origin) by fluorescence based assay; type: ADME
Cytochrome P450 2D6, sequence (P10635 whole entry): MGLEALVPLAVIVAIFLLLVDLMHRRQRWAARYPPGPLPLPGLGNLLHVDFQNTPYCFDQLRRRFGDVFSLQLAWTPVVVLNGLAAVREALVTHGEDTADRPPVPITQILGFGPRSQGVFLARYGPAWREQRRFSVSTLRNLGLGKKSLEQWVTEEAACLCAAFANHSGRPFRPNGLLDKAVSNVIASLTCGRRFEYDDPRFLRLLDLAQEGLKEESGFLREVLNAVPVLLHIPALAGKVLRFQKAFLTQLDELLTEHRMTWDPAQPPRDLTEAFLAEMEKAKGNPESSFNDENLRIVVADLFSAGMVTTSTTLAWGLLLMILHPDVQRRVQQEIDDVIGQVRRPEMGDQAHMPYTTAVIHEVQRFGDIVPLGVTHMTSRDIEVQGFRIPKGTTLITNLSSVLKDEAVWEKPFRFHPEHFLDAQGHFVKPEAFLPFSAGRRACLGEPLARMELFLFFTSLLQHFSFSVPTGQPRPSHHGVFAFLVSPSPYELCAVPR

[8] = Half-life in CD-1 mouse plasma at 50 mg/kg, po; type: ADME, organism-based
[9] = Cmax in rat plasma at 50 mg/kg, po; type: ADME, organism-based; set-up: dose 50 mg/kg, route po
[10] = molecular target: T2, Bromodomain-containing protein 9 (Homo sapiens) (UniProt Q9H8M2); assay: Inhibition of BRD9 (unknown origin) at 10 uM by DiscoverX BROMOscan assay
T2 sequence (whole entry): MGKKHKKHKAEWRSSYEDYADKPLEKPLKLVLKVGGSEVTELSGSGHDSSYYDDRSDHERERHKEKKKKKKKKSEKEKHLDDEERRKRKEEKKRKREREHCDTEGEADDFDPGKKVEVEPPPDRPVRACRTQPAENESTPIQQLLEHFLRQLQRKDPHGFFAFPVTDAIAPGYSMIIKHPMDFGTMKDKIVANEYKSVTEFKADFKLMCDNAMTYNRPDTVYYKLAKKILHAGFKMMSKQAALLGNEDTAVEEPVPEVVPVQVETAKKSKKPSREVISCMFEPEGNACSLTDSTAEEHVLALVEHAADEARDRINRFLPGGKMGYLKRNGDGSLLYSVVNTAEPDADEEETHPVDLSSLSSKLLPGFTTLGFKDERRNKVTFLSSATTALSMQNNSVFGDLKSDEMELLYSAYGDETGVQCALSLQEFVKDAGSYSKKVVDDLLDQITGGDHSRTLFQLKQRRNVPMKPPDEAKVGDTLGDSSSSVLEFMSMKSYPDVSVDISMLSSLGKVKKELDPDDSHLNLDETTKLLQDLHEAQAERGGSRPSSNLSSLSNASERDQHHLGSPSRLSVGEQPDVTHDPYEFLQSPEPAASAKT

[11] = Half-life in CD-1 mouse brain at 50 mg/kg, po; type: ADME, organism-based
[12] = molecular target: Tyrosine-protein kinase JAK1 (Homo sapiens) (UniProt P23458); assay: Inhibition of JAK1 JH2 (unknown origin) at 10 uM by DiscoverX KINOMEscan relative to control
[13] = AUC(0 to t) in CD-1 mouse plasma at 10 mg/kg, sc; type: ADME, organism-based; set-up: dose 10 mg/kg, route sc
Cytochrome P450 2C9 = Cytochrome P450 2C9 (Homo sapiens, UniProt P11712); assay: Inhibition of CYP2C9 (unknown origin) by fluorescence based assay; type: ADME
Cytochrome P450 2C9, sequence (P11712 whole entry): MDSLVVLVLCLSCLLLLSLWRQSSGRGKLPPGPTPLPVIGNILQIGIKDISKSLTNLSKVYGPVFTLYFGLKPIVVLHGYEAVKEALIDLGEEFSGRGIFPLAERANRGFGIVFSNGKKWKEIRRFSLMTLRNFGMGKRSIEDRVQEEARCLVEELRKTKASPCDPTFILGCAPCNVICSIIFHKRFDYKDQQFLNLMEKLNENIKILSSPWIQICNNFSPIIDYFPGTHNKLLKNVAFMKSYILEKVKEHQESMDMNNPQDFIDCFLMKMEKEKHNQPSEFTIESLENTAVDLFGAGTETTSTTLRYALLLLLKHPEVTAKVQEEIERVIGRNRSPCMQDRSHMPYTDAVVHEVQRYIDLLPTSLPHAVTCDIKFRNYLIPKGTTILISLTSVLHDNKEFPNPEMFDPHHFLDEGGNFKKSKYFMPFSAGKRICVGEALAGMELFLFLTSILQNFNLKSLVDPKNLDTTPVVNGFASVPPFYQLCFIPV

[14] = Cmax in CD-1 mouse plasma at 50 mg/kg, po; type: ADME, organism-based; set-up: dose 50 mg/kg, route po
[15] = Cmax in CD-1 mouse plasma at 10 mg/kg, sc; type: ADME, organism-based; set-up: dose 10 mg/kg, route sc
[16] = Half-life in rat plasma at 50 mg/kg, po; type: ADME, organism-based
[17] = AUC(0 to t) in CD-1 mouse plasma at 50 mg/kg, po; type: ADME, organism-based; set-up: dose 50 mg/kg, route po
Cytochrome P450 1A2 = molecular target: T3, Cytochrome P450 1A2 (Homo sapiens, UniProt P05177); assay: Inhibition of CYP1A2 (unknown origin) by fluorescence based assay; type: ADME
T3 sequence (P05177 whole entry): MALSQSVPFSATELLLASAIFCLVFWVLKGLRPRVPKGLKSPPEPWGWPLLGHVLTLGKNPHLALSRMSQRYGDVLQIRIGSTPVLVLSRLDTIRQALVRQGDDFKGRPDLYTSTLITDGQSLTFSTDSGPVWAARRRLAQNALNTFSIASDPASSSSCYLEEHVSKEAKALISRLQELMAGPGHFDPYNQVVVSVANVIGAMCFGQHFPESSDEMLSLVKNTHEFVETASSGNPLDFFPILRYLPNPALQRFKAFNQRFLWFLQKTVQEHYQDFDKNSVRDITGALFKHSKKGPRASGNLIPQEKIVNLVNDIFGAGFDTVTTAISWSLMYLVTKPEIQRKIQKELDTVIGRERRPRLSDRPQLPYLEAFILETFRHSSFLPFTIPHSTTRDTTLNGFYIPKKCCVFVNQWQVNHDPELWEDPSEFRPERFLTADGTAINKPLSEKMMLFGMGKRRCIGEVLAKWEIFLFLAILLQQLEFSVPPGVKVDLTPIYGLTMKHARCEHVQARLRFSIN

Cytochrome P450 3A4 = Cytochrome P450 3A4 (Homo sapiens, UniProt P08684); assay: Inhibition of CYP3A4 (unknown origin) by fluorescence based assay; type: ADME
Cytochrome P450 3A4, sequence (P08684 whole entry): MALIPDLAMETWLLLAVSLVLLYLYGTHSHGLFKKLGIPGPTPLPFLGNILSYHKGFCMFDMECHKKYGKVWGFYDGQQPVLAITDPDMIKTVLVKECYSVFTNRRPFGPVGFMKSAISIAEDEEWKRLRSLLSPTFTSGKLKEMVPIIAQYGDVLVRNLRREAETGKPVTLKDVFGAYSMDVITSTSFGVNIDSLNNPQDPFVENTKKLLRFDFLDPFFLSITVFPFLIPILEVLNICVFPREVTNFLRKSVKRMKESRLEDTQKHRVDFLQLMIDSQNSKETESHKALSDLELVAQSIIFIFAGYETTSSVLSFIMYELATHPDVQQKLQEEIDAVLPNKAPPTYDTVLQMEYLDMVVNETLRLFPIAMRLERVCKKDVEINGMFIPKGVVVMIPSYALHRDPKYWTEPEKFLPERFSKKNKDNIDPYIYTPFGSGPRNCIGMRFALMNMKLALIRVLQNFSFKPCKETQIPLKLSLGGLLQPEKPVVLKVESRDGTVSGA

[18] = AUC(0 to t) in rat plasma at 50 mg/kg, po; type: ADME, organism-based; set-up: dose 50 mg/kg, route po
[19] = Toxicity in mouse xenografted with human Kasumi 1 cells assessed as signs of toxicity at 50 mg/kg, po administered once a day for 15 days starting from 25 days after transplantation; type: organism-based; settings: in vivo, 360 h, time 15 day
[20] = Toxicity in mouse xenografted with human Kasumi 1 cells assessed as effect on body weight at 50 mg/kg, po administered once a day for 15 days starting from 25 days after transplantation; type: organism-based; settings: in vivo, 360 h, time 15 day
[21] = Stability in mouse liver microsomes assessed as half-life; type: ADME, Microsome
[22] = molecular target: CREB-binding protein (Homo sapiens) (UniProt Q92793); assay: Inhibition of CREBBP (unknown origin) at 10 uM by DiscoverX BROMOscan assay
[23] = Tmax in rat plasma at 50 mg/kg, po; type: ADME, organism-based
[24] = molecular target: Non-receptor tyrosine-protein kinase TYK2 (Homo sapiens) (UniProt P29597); assay: Inhibition of TYK2 (unknown origin) at 10 uM by DiscoverX KINOMEscan relative to control
[25] = Tmax in CD-1 mouse brain at 50 mg/kg, po; type: ADME, organism-based
Peregrin (Homo sapiens) = molecular target: T4, Peregrin (Homo sapiens) (UniProt P55201); assay: Inhibition of BRPF1 (unknown origin) at 10 uM by DiscoverX BROMOscan assay
T4 sequence (whole entry): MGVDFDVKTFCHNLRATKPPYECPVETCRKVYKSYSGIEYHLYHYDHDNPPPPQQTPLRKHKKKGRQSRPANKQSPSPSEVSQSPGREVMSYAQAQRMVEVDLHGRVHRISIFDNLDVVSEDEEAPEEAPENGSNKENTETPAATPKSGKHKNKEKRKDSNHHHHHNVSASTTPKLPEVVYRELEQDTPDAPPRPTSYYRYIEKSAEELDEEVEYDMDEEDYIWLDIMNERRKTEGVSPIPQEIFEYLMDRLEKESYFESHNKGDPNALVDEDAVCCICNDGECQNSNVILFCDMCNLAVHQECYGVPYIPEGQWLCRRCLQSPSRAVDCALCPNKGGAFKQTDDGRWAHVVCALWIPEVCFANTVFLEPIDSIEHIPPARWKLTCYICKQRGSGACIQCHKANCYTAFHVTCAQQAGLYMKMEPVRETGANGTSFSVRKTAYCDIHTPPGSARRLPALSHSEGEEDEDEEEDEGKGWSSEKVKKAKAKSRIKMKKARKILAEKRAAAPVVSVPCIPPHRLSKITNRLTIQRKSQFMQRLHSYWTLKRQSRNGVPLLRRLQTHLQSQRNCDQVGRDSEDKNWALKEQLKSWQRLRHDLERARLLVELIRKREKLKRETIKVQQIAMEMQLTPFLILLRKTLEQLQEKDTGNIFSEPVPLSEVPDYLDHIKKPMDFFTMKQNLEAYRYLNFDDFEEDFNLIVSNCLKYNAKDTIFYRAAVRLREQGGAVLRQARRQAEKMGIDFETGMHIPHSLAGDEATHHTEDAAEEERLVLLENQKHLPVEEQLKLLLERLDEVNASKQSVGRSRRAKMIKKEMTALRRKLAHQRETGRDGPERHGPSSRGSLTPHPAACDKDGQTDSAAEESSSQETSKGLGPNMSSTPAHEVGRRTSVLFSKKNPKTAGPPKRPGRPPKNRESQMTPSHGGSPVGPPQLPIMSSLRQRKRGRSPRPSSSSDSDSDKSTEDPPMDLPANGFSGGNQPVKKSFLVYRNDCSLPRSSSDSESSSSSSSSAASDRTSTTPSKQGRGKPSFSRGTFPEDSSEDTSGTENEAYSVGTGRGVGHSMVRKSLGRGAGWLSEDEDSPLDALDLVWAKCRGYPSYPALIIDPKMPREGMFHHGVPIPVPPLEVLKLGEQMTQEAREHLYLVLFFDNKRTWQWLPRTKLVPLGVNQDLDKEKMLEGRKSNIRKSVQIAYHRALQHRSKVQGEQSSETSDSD

[26] = Stability in human liver microsomes assessed as half-life; type: ADME, Microsome
Cytochrome P450 2C19 = Cytochrome P450 2C19 (Homo sapiens, UniProt P33261); assay: Inhibition of CYP2C19 (unknown origin) by fluorescence based assay; type: ADME
Cytochrome P450 2C19, sequence (P33261 whole entry): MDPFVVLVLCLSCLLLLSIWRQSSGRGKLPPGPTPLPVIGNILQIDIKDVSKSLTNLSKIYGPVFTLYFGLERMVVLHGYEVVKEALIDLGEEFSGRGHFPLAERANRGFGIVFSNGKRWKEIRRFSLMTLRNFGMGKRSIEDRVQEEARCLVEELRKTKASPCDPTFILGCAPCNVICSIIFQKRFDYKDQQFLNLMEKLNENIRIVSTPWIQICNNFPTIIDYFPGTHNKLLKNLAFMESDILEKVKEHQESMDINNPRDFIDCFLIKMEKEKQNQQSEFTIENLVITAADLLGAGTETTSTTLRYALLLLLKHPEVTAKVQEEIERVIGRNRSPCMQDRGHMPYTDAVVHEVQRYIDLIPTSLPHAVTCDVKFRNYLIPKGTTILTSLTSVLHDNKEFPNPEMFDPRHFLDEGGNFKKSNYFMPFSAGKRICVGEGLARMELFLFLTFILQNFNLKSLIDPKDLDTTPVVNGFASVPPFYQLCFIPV

[27] = molecular target: Histone acetyltransferase p300 (Homo sapiens) (UniProt Q09472); assay: Inhibition of EP300 (unknown origin) at 10 uM by DiscoverX BROMOscan assay
Histone acetyltransferase p300 (Homo sapiens), sequence (Q09472 whole entry): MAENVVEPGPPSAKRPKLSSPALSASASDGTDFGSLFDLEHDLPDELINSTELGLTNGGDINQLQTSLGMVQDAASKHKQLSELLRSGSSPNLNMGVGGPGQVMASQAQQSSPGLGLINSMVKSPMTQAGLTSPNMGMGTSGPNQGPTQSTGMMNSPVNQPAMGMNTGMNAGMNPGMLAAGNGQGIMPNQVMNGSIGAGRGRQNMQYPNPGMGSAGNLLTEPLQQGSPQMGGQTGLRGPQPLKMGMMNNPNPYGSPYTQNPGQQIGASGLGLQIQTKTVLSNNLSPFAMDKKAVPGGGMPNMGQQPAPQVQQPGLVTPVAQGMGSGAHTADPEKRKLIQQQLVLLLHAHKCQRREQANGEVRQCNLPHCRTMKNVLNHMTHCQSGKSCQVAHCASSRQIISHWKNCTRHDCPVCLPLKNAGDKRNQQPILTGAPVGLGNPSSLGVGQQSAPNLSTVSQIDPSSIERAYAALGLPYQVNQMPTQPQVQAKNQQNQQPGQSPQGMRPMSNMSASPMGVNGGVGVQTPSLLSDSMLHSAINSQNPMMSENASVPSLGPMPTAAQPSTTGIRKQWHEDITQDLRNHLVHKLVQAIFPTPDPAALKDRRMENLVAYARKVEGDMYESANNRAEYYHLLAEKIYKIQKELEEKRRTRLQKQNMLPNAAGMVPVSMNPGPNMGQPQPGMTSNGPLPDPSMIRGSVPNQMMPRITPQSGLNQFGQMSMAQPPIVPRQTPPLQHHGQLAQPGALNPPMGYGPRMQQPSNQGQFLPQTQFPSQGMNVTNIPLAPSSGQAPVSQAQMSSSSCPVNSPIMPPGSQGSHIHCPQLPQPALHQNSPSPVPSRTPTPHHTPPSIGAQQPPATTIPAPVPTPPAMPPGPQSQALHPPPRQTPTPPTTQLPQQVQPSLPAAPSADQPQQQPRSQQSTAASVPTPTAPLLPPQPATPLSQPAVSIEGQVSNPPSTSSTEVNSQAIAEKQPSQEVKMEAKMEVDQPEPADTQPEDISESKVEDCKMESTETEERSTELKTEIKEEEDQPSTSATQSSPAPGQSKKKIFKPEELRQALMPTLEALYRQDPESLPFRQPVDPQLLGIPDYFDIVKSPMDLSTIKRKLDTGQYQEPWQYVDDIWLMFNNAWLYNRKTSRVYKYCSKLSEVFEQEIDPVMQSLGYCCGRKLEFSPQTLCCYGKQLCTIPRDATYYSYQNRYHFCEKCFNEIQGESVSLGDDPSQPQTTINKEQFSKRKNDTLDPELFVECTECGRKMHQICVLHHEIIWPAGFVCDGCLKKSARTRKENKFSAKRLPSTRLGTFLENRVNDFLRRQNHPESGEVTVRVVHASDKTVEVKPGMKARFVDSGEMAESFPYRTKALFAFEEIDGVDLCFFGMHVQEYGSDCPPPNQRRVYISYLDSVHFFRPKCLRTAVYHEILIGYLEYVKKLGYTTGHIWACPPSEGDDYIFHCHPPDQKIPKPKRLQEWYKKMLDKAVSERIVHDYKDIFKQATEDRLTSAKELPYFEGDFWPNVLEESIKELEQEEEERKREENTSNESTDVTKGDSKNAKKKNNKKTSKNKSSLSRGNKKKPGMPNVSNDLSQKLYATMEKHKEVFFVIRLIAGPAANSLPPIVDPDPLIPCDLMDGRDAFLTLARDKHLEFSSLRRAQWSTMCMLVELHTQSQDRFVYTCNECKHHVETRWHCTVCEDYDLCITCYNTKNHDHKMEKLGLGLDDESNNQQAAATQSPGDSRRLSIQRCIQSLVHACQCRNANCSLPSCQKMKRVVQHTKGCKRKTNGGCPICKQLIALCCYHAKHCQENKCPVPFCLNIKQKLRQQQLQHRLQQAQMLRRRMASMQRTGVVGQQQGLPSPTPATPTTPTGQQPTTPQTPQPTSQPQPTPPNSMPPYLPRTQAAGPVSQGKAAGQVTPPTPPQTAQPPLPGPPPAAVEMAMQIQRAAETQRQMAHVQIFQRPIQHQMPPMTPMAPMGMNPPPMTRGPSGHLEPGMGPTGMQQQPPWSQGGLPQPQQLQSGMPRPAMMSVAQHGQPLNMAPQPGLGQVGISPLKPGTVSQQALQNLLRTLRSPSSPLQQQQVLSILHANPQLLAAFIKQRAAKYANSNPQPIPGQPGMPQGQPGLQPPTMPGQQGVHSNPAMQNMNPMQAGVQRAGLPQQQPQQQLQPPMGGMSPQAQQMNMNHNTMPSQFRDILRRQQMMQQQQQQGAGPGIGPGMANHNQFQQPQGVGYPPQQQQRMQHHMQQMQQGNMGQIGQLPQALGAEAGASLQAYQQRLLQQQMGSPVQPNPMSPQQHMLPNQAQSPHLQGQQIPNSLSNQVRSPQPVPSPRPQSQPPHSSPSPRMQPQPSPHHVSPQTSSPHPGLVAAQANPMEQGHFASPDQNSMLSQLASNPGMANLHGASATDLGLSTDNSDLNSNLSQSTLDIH

Cc1noc(C)c1-c1ccc2[nH]c(=O)cc(NCc3cccc(C(F)(F)F)c3)c2c1
Kd [1]: 220 nM

COc1ccccc1CNc1cc(=O)[nH]c2ccc(-c3c(C)noc3C)cc12
GI50 (MV4-11): 1040 nM | Kd [1]: 35 nM

Cc1noc(C)c1-c1ccc2[nH]c(=O)cc(NCc3cccc(Br)c3)c2c1
GI50 (MV4-11): 731 nM | Kd [1]: 53 nM

COc1cccc(CNc2cc(=O)[nH]c3ccc(-c4c(C)noc4C)cc23)c1
GI50 (MV4-11): 1580 nM | Kd [1]: 95 nM

Cc1noc(C)c1-c1ccc2[nH]c(=O)cc(NCc3ccccc3Cl)c2c1
GI50 (MV4-11): 1660 nM | Kd [1]: 55 nM

Cc1ccc(-c2nnc(Sc3c(-c4ccccc4)c4cc(Br)ccc4[nH]c3=O)n2N)cc1
GI50 (MV4-11): 220 nM | IC50 [2]: 3700 nM

Cc1noc(C)c1-c1ccc2[nH]c(=O)cc(NCc3ccccc3F)c2c1
Kd [1]: 130 nM

Cc1noc(C)c1-c1ccc2[nH]c(=O)cc(NCC3CCCCC3)c2c1
GI50 (MV4-11): 3780 nM | Kd [1]: 250 nM

Cc1noc(C)c1-c1ccc2[nH]c(=O)cc(NCc3ccccc3)c2c1
Cmax [3]: 289 ng/mL | Tmax [4]: 2 h | AUC(0-t) [5]: 755 ng·h/mL | GI50 (MV4-11): 595 nM | half-life [6]: 2.33 h | inhibition in vivo at 50 mg/kg (Kasumi 1): 60% | Tmax [7]: 1 h | IC50 (Cytochrome P450 2D6): > 30000 nM | half-life [8]: 1.02 h | IC50 [2]: 1100 nM | Cmax [9]: 9340 ng/mL | inhibition [10]: Active | half-life [11]: 1.39 h | inhibition [12]: > 65% | AUC(0-t) [13]: 25100 ng·h/mL | IC50 (Cytochrome P450 2C9): 6770 nM | Cmax [14]: 60900 ng/mL | Cmax [15]: 7770 ng/mL | half-life [16]: 2 h | AUC(0-t) [17]: 178000 ng·h/mL | Kd [1]: 44 nM | IC50 (Cytochrome P450 1A2): > 30000 nM | IC50 (Cytochrome P450 3A4): > 30000 nM | AUC(0-t) [18]: 34600 ng·h/mL | Activity [19]: Non-Toxic | Activity [20]: Non-Toxic | half-life [21]: 0.412 h | inhibition [22]: Active | Tmax [23]: 1.5 h | inhibition [24]: > 65% | Tmax [25]: 0.5 h | inhibition (Peregrin (Homo sapiens)): Active | half-life [26]: 0.202 h | IC50 (Cytochrome P450 2C19): > 30000 nM | inhibition [27]: Active

Cc1noc(C)c1-c1ccc2[nH]c(=O)cc(-c3ccccc3)c2c1
GI50 (MV4-11): 16000 nM | IC50 [2]: 3100 nM | Kd [1]: 1300 nM
